# Data from patent US20260215425A1, “NITRIFICATION INHIBITORS” (The University of Melbourne, priority 2022, published 2026).
# How the values were obtained:
# soil A = assay: soil incubation, NH4+ and NO3- in soil A; details: 21 days
# Method: Soils used in these studies were air-dried, ground and sieved (2 mm) prior to use. Soil microcosm incubations were carried out in 250 mL polypropylene specimen containers (Sarstedt, Germany), containing 20 g oven dry-weight equivalent of soil. Microcosms were treated with half the volume of water required to meet the desired water-filled pore space (WFPS %) of 60% and pre-incubated at 25° C. for seven days to revive soil microbial activity. Following pre-incubation, the remaining volume to reach the WFPS % was applied as one of the treatment solutions: (1) fertiliser ((NH4)2SO4,) 100 mg kg^−1, (2) fertiliser+0.5 mol % 4-MPT, (3) fertiliser+2.5 mol % 4-MPT, (4) fertiliser+5 mol % 4-MPT or (5) fertiliser+5 mol % compound 1, with three replicates of each treatment per time interval (n=3). Throughout the incubation period soil microcosms were kept aerated by removing the lid for 10 minutes every 2-3 days to allow gas exchange, and moisture levels were replenished via addition of Milli-Q water as required. At the end of the desired incubation period (i.e., after 0, 3, 7, 14, and 21 days, respectively), soil microcosms were removed and destructively sampled by treating with 2 M aqueous potassium chloride solution (KCl, 100 mL) and shaking for 1 h. Soil-KCl solutions were filtered (Whatman No. 42), and the filtrates were stored at −20° C. until the conclusion of the experiment, when all KCl extracts were analysed for the concentration of soil mineral nitrogen from ammonium (NH4^+—N) and from nitrate (NO3^−—N; the conversion of NO2 to NO3^− in soils is very rapid) after appropriate dilutions using Segmented Flow Analysis (San++, Skalar, Breda, The Netherlands). Results are reported as the mean of three replicates, errors reported are standard errors of the mean. Errors associated with raw data were carried through calculations using standard error propagation protocols.
# To determine the nitrification inhibitory effect of 4-MPT in vivo, soil incubations were performed by measuring concentration-time profiles for NH4^+ and NO3^− in an acidic Australian soil (soil A, pH=5.9) over 21 days. 4-MPT was tested at three different concentrations (0.5 mol %, 2.5 mol % and 5 mol % of applied fertiliser-N) and compared with the alkyl-substituted compound 1 (5 mol % of applied fertiliser-N) to confirm the requirement of the N-propargyl substitutent for inhibitory activity (FIG. 5).
# N. europaea = assay: O2 consumption measurements; assay type: cell-based; details: [NH4+] 3 mM, 20° C.
# Method: O2 consumption rates of cell suspensions of N. europaea were measured using a Clark-type oxygen electrode (Rank Brothers, Cambridge, UK) mounted in a water-jacketed electrode chamber (3 mL capacity) that was connected to a recirculating cooler (Lauda, Austria). The data were recorded using a Data-trax™ (World Precision Instruments, UK) sensor data collection system. All measurements were taken at 20° C. and 1 mL final reaction solution volume. The polarizing voltage was set to 0.6 V. To calibrate the oxygen signal, an excess (approximately 50 mg) of Na2S2O4 was added to 1 mL of Milli-Q water to chemically remove dissolved O2. […] The voltage at saturated O2 concentration (“100% O2”) was determined by measuring the voltage of the equilibrated aerated reaction system consisting of 1 mL Milli-Q water. Sample measurements were taken as follows: The 1 mL reaction mixture, composed of 980 μL N. europaea cell solution in NaPB (OD600=0.8; corresponding to approximately 468 μg/L protein) was equilibrated for 5 min in the chamber until the voltage reading was stable. […] After 4 min of oxygen consumption (a linear rate coefficient of approximately kobs=k=274.7+20.0 nmol O2 L^−1 s^−1 was determined), 10 μL of the inhibitor stock solution of MPT in DMSO (1.2 mM and 0.6 mM) were added via a 10-μL Eppendorf pipette through a capillary opening, ensuring the emergence of the pipette tip in the solution. […]
smiles,measurement,setting,value
"C#CCn1cc(C)nn1 [Compound 4-MPT, 4-Methyl-1-(prop-2-yn-1yl)-1H-1,2,3-triazole]",NH4+ loss / conversion in soil,soil A; 0.5 mol % of applied fertiliser-N,noticeably delayed NH4^+ loss within the first 15 days
same,NH4+ loss / conversion in soil,soil A; 2.5 mol % of applied fertiliser-N,quantitatively suppress NH4^+ conversion
same,NH4+ loss / conversion in soil,soil A; 5 mol % of applied fertiliser-N,quantitatively suppress NH4^+ conversion
same,observed rate coefficient kobs for the O2 consumption,N. europaea; [MPT]=0.6 mM,0.0027 s⁻¹
same,observed rate coefficient kobs for the O2 consumption,N. europaea; [MPT]=1.2 mM,0.0045 s⁻¹
